Test results from patent publication US20260284074A1, “ENT1 Inhibitors in Combination with Checkpoint Inhibitors” (iTeos Belgium SA, priority 2023, published 2026).

Tests used:
[1] = tested on: TNF, IFNγ, and granzyme B; assay: Cytokine levels in supernatants of dissociated human tumor cell cultures with ATP; assay type: cell-based; settings: 500 μM ATP; Compound 1 300 nM; culture supernatants
Protocol: Human tumors were dissociated, and cells were CFSE-labelled and stimulated with CD3/CD28 microbeads and IL-2 in the presence of 500 μM of ATP as a source of adenosine.
Human tumor pieces were rinsed with cold PBS and cut into 1 to 2 mm fragments with a scalpel blade and transferred into GentleMACS C tubes. Dissociation of the tissue was completed with the Tumor Dissociation kit (Miltenyi Biotec) according to the manufacturer's instruction. Briefly, 5 mL of dissociation solution—containing 200 μL of enzyme H, 20 μL of enzyme R and 25 μL of enzyme A and RPMI until 5 mL—was added per gram of tumor. The tube was placed in the gentleMACS dissociator and the 1st program was run. An incubation step of 30 minutes at 37° C. was applied with rotation (MACSmix tube rotator). After this incubation, a quick centrifugation (30×rcf, 1 min) was performed, the supernatant containing dissociated cells was collected in a new tube containing FBS (30% of the total volume with supernatant) and placed at 4° C. […] A short centrifugation was performed, the cells in supernatant were pooled with the 1st collection and filtered through a 100 μm cell strainer which was washed with 10 mL RPMI 10% FBS 2% P/S. After centrifugation at 350×rcf for 10 min, cells were resuspended in 20 mL RPMI 10% FBS 2% P/S and counted with a haemocytometer. […]

[2] = tested on: human T cells; assay: CMV pp65 peptide-specific T cell expansion and antigen-specific killing with ATP; assay type: cell-based; settings: 300 μM ATP as a source of adenosine
Protocol: FIGS. 29A and 29B show the results of an experiment whereby human T cells were activated in the presence of 300 μM ATP and Compound 1, anti-PD-1, or Compound 1 and anti-PD-1.
Human T cells were activated in the presence of 300 μM ATP and Compound 1, anti-PD-1, or Compound 1 and anti-PD-1. CD8+ T cell population was monitored by tetramer-positive (Tet+) staining data. […] (See FIGS. 29A-29B).

[3] = tested on: ENT1; assay: ENT1 expression (FIG. 28C); assay type: cell-based, human
Protocol: FIGS. 28A, 28B, and 28C show the results of an experiment whereby human tumors were dissociated, and cells were CFSE-labelled and stimulated with CD3/CD28 microbeads and IL-2 in the presence of 500 μM of ATP as a source of adenosine. FIGS. 28A and 28B show data of Compound 1-mediated rescue of CD8+ T cell proliferation and TNF, IFNγ, and granzyme B, respectively, from dissociated tumor cell suspension cultures. Symbols represent each donor, bars are group mean±s.d. One-way RM ANOVA with Tukey's multiple comparisons test.

In the case of `COc1cc(C(=O)O[C@@H]2CCCOc3cc(cc(OC)c3OC)C(=O)NCCCN3CCCN(CC2)CC3)cc(OC)c1OC` [Compound 1, (12R)-7^4,7^5-dimethoxy-6-oxo-8-oxa-5-aza-1(1,4)-diazepana-7(1,3)-benzenacyclotetradecaphane-12-yl 3,4,5-trimethoxybenzoate], the “Production of TNF, IFNγ, and granzyme B suppressed by ATP” value [1] was “restored, to varying extents”, the Antigen-specific killing activity [2] was “restoration” and the “CMV pp65 peptide-specific T cell expansion” value ([2]; tetramer-positive CD8+ T cells) was “restores”. The ENT1 expression [3] was “suppresses”.
